In the assay the target is SOS1/KRAS WT (Homo sapiens (Human), UniProt Q07889). Briefly: SOS1/KRAS WT HTRF binding assay (FRET-based protein-protein interaction). The conditions noted are these: inhibition of His6-SOS1 (aa564-1049, 40 nM) binding to GST-KRAS-WT (aa1-188, 40 nM); at least two independent replicates; read-out: SOS1/KRAS WT HTRF Binding assay pIC50 (converted). From the text:
The capacity of compounds to inhibit SOS1 binding to KRAS-WT (wild-type) was quantified using a FRET-based protein-protein interaction assay. The assay is based on the transfer of energy between two fluorophores, a donor and an acceptor, when in close proximity. In this instance, the donor is a Europium-conjugated α-GST antibody that binds to GST-tagged KRAS-WT, and the acceptor is an XL665-conjugated α-His 6 antibody that binds to His 6-tagged SOS1. Binding of SOS1 to KRAS-WT results in an increased fluorescent signal at emission wavelength of 665 nm which can be detected on the EnVision plate reader. Compounds that inhibit binding will reduce the 665 nm signal emitted. Recombinant KRAS-WT protein (40 nM; Human KRAS, aa1-188 recombinant protein with N-terminal GST-tag) and SOS1 protein (40 nM; Human SOS1 exchange domain, aa564-1049 with N-terminal 6His-tag) were mixed together in assay buffer (5 mM HEPES pH7.3, 150 mM NaCl, 10 mM EDTA, 5 mM MgCl2, 0.05% BSA, 0.0025% NP-40, 1 mM DTT and 100 mM KF) and incubated at room temperature with a dose response of compound in a 384-well low volume white plate and a final volume of 5 ul. After a 60 minute incubation, 5 ul of 4 nM anti-GST-Eu(K) (Cisbio, France) combined with 20 nM anti-6His-XL665 (Cisbio, France), diluted in assay buffer, was added to the plate. Following a further 4 hr incubation at room temperature, time-resolved fluorescence was measured on the EnVision plate reader. DMSO (0.05%) and 10 μM reference compound were used to generate the Max and Min assay signals, respectively. Data was analysed using a four-parameter logistic model to calculate IC50 values, with at least two independent replicates performed for each compound.
Data was analyzed using a four-parameter logistic model to calculate IC50 values, with at least two independent replicates performed for each compound.
Background: TR-FRET usually uses a lanthanide donor and a delayed reading to cut background.
SOS1/KRAS WT, sequence (Q07889 564-1049): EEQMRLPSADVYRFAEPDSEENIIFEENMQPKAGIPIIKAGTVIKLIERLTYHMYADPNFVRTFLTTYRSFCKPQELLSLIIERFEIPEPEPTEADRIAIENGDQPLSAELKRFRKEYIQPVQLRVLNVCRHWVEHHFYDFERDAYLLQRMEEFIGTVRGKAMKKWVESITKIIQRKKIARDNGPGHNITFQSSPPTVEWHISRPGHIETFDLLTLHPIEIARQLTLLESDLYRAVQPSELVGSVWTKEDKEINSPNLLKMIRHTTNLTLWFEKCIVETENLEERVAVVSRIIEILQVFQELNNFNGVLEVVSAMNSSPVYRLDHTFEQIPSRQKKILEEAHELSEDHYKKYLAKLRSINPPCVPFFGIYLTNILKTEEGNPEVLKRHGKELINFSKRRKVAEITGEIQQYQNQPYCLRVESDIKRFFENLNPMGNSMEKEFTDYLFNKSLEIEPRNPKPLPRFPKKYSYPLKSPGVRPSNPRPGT
In the case of `COc1c([C@@H](C)Nc2nnc(C)c3cc4c(cc23)n(C)c(=O)n4C)cccc1C(F)(F)F` [Compound 55, 5-[[(1R)-1-[2-methoxy-3-(trifluoromethyl)phenyl]ethyl]amino]-1,3,8-trimethyl-imidazo[4,5-g]phthalazin-2-one], the IC50 was 0.0575 µM.

Take `Cc1nnc(N[C@H](C)c2cccc(C(F)(F)F)c2)c2cc3c(cc12)n(C1CC1)c(=O)n3C` [Compound 56, 1-cyclopropyl-3,8-dimethyl-5-[[(1R)-1-[3-(trifluoromethyl)phenyl]ethyl]amino] imidazo[4,5-g]phthalazin-2-one]: the IC50 is 0.0115 µM.

For `Cc1nnc(N[C@H](C)c2ccc3cn[nH]c3c2)c2cc3c(cc12)n(C)c(=O)n3C` [Compound 57, 5-[[(1R)-1-(1H-indazol-6-yl)ethyl]amino]-1,3,8-trimethyl-imidazo[4,5-g]phthalazin-2-one], the IC50 was 0.0933 µM. For `Cc1c([C@@H](C)Nc2nnc(C)c3cc4c(cc23)n(C2CC2)c(=O)n4C)cccc1C(F)(F)F` [Compound 58] the value was 0.00661 µM.

Consider `Cc1nnc(N[C@H](C)c2cccc(C(F)(F)C(C)(C)O)c2F)c2cc3c(cc12)C(C)(C)C(=O)N3C1CC1` [Compound 59, 1-cyclopropyl-3,3,5-trimethyl-8-[[(1R)-1-[3-(1,1-difluoro-2-hydroxy-2-methyl-propyl)-2-fluoro-phenyl]ethyl]amino]pyrrolo[2,3-g]phthalazin-2-one], for which the IC50 is 0.00794 µM.

As to `Cc1nnc(N[C@H](C)c2cccc3[nH]ncc23)c2cc3c(cc12)n(C)c(=O)n3C` [Compound 60, 5-[[(1R)-1-(1H-indazol-4-yl)ethyl]amino]-1,3,8-trimethyl-imidazo[4,5-g]phthalazin-2-one], the IC50 was 0.209 µM. As to `Cc1nnc(N[C@H](C)c2cccc3c(F)cn(C)c23)c2cc3c(cc12)n(C)c(=O)n3C` [Compound 61, 1,3,8-trimethyl-5-[[(1R)-1-(3-fluoro-1-methyl-indol-7-yl)ethyl]amino]imidazo[4,5-g]phthalazin-2-one], the IC50 is 0.1 µM. For `Cc1nnc(N[C@H](C)c2cccc(C(F)F)c2F)c2cc3c(cc12)C(C)(C)C(=O)N3C1CC1` [Compound 62, 1-cyclopropyl-3,3,5-trimethyl-8-[[(1R)-1-[3-(difluoromethyl)-2-fluoro-phenyl]ethyl]amino]pyrrolo[2,3-g]phthalazin-2-one] the value was 0.0107 µM; for `CNCC(F)(F)c1cccc([C@@H](C)Nc2nnc(C)c3cc4c(cc23)n(C)c(=O)n4C)c1F` [Compound 63, 1,3,8-trimethyl-5-[[(1R)-1-[3-[1,1-difluoro-2-(methylamino)ethyl]-2-fluoro-phenyl]ethyl]amino]imidazo[4,5-g]phthalazin-2-one], 0.0158 µM; for `Cc1nnc(N[C@H](C)c2cccc(C(F)(F)C(C)(C)O)c2)c2cc3c(cc12)n(C)c(=O)n3C` [Compound 64, 1,3,8-trimethyl-5-[[(1R)-1-[3-(1,1-difluoro-2-hydroxy-2-methyl-propyl)phenyl]ethyl]amino]imidazo [4,5-g]phthalazin-2-one], 0.00813 µM.

For `Cc1nnc(N[C@H](C)c2cccc(C(F)(F)C(C)(C)O)c2)c2cc3c(cc12)C(C)(C)C(=O)N3C1CC1` [Compound 65, 1-cyclopropyl-3,3,5-trimethyl-8-[[(1R)-1-[3-(1,1-difluoro-2-hydroxy-2-methyl-propyl)phenyl]ethyl]amino]pyrrolo [2,3-g]phthalazin-2-one], the IC50 was 0.00977 µM. Under `Cc1c([C@@H](C)Nc2nnc(C)c3cc4c(cc23)N(C2CC2)C(=O)C4(C)C)cccc1C(F)(F)CO` [Compound 66, 1-cyclopropyl-3,3,5-trimethyl-8-[[(1R)-1-[3-(1,1-difluoro-2-hydroxy-ethyl)-2-methyl-phenyl]ethyl]amino]pyrrolo[2,3-g]phthalazin-2-one] stands 0.00851 µM.

These data come from patent US20250197407A1 (Jazz Pharmaceuticals Ireland Limited, priority 2022, published 2025).
